Results from patent publication US9145392B2, “Imidazole amines as modulators of kinase activity” (Merck Patent GmbH, priority 2011, dated 2015).

What was measured:
P70S6K (T412E mutant) = P70S6K (T412E mutant) (Homo sapiens (Human), UniProt P23443, T412E); assay: P70S6K enzyme assay; format: biochemical; settings: read-out: IC50 p70S6K
Method in brief: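 Phosphorylated product and substrate peptide separated by microfluidic capillary electrophoresis (Caliper LabChip 3000), product peaks resolving before substrate.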

His-AKT (Full Length) = His-AKT (Full Length) (Homo sapiens (Human), UniProt P31749); assay: AKT enzyme assay; format: biochemical; settings: read-out: IC50 AKT
Sequence of His-AKT (Full Length) (P31749 whole entry): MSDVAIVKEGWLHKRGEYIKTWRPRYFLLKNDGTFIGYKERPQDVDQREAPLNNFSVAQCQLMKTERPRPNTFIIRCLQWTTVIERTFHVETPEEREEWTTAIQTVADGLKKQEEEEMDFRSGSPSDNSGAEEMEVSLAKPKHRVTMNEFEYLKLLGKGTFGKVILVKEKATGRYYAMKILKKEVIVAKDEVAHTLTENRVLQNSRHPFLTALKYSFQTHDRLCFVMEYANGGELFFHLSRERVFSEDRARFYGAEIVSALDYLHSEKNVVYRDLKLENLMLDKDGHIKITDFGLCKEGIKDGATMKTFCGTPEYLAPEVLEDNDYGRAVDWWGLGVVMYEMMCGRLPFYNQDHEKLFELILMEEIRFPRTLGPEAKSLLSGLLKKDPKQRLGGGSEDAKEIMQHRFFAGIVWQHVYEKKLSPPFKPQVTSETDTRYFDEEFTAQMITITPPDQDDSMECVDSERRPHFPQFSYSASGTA

Sequence of P70S6K (T412E mutant) (P23443 whole entry T412E): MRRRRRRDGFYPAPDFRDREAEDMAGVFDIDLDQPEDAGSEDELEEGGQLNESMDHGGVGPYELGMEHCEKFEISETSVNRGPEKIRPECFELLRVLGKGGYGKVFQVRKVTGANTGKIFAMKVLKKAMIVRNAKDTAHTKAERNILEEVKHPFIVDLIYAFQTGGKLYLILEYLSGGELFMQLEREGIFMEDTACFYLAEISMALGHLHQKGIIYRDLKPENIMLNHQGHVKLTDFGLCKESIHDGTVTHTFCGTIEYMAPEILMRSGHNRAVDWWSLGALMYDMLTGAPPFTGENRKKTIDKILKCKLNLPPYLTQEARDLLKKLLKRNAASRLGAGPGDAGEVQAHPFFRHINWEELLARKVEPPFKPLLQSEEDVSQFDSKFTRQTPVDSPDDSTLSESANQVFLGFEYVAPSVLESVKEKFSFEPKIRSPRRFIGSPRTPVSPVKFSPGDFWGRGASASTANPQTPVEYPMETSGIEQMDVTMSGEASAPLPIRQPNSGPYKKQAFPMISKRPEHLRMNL

IC50 (P70S6K (T412E mutant)) [nM] | IC50 (His-AKT (Full Length)) [nM] | SMILES
2.9 | 2.7 | Nc1ncnc(N2CCC(c3nc(-c4ccnc(C(F)(F)F)c4)cn3CCN3CCC3)CC2)c1-c1cnoc1 [Compound 168, 6-(4-(1-(2-(azetidin-1-yl)ethyl)-4-(2-(trifluoromethyl)pyridin-4-yl)-1H-imidazol-2-yl)piperidin-1-yl)-5-(isoxazol-4-yl)pyrimidin-4-amine]
1.3 | 1.7 | CNCCn1cc(-c2ccnc(C(F)(F)F)c2)nc1C1CCN(c2ncnc(N)c2C#N)CC1 [Compound 169, 4-amino-6-(4-(1-(2-(methylamino)ethyl)-4-(2-(trifluoromethyl)pyridin-4-yl)-1H-imidazol-2-yl)piperidin-1-yl)pyrimidine-5-carbonitrile]
170 | 120 | CNCCn1cc(-c2ccnc(C(F)(F)F)c2)nc1C1CCN(c2ncnc(N)c2C2C=NOC2)CC1 (centres unmarked) [Compound 170, 5-(4,5-dihydroisoxazol-4-yl)-6-(4-(1-(2-(methylamino)ethyl)-4-(2-(trifluoromethyl)pyridin-4-yl)-1H-imidazol-2-yl)piperidin-1-yl)pyrimidin-4-amine]
2 | 1.4 | CNCCn1cc(-c2ccnc(C(F)(F)F)c2)nc1C1CCN(c2ncnc(N)c2Cl)CC1 [Compound 172, 5-chloro-6-(4-(1-(2-(methylamino)ethyl)-4-(2-(trifluoromethyl)pyridin-4-yl)-1H-imidazol-2-yl)piperidin-1-yl)pyrimidin-4-amine]
2.8 | 3.6 | Nc1ncnc(N2CCC(c3nc(-c4ccnc(C(F)(F)F)c4)cn3CCNC3CC3)CC2)c1Cl [Compound 173, 5-chloro-6-(4-(1-(2-(cyclopropylamino)ethyl)-4-(2-(trifluoromethyl)pyridin-4-yl)-1H-imidazol-2-yl)piperidin-1-yl)pyrimidin-4-amine]
0.44 | 0.52 | CCNCCn1cc(-c2ccc(F)c(C(F)(F)F)c2)nc1C1CCN(c2ncnc(N)c2OC(C)C)CC1 [Compound 174, 6-(4-(1-(2-(ethylamino)ethyl)-4-(4-fluoro-3-(trifluoromethyl)phenyl)-1H-imidazol-2-yl)piperidin-1-yl)-5-isopropoxypyrimidin-4-amine]
5.9 | 4.5 | CC(C)Oc1c(N)ncnc1N1CCC(c2nc(-c3ccc(F)c(C(F)(F)F)c3)cn2CC2CNC2)CC1 [Compound 175, 6-(4-(1-(azetidin-3-ylmethyl)-4-(4-fluoro-3-(trifluoromethyl)phenyl)-1H-imidazol-2-yl)piperidin-1-yl)-5-isopropoxypyrimidin-4-amine]
5.5 | 5 | CCOc1c(N)ncnc1N1CCC(c2nc(-c3ccc(F)c(C(F)(F)F)c3)cn2CC2CNC2)CC1 [Compound 176, 6-(4-(1-(azetidin-3-ylmethyl)-4-(4-fluoro-3-(trifluoromethyl)phenyl)-1H-imidazol-2-yl)piperidin-1-yl)-5-ethoxypyrimidin-4-amine]
3.9 | 2.7 | Cc1cc(-c2cn(CCN3CCC3)c(C3CCN(c4ncnc(N)c4OC(C)C)CC3)n2)ccc1F [Compound 178, 6-(4-(1-(2-(azetidin-1-yl)ethyl)-4-(4-fluoro-3-methylphenyl)-1H-imidazol-2-yl)piperidin-1-yl)-5-isopropoxypyrimidin-4-amine]
1.9 | 4.2 | CCc1c(N)ncnc1N1CCC(c2nc(-c3ccnc(C(C)C)c3)cn2CCN2CCC2)CC1 [Compound 179, 6-(4-(1-(2-(azetidin-1-yl)ethyl)-4-(2-isopropylpyridin-4-yl)-1H-imidazol-2-yl)piperidin-1-yl)-5-ethylpyrimidin-4-amine]
1.1 | 2.4 | CC(C)c1cc(-c2cn(CCN3CCC3)c(C3CCN(c4ncnc(N)c4Cl)CC3)n2)ccn1 [Compound 180, 6-(4-(1-(2-(azetidin-1-yl)ethyl)-4-(2-isopropylpyridin-4-yl)-1H-imidazol-2-yl)piperidin-1-yl)-5-chloropyrimidin-4-amine]
0.11 | 0.15 | CC(C)c1cc(-c2cn(CCN3CCC3)c(C3CCN(c4ncnc(N)c4Br)CC3)n2)ccn1 [Compound 181, 6-(4-(1-(2-(azetidin-1-yl)ethyl)-4-(2-isopropylpyridin-4-yl)-1H-imidazol-2-yl)piperidin-1-yl)-5-bromopyrimidin-4-amine]
0.7 | 2.2 | C=Cc1c(N)ncnc1N1CCC(c2nc(-c3ccnc(C(C)C)c3)cn2CCN2CCC2)CC1 [Compound 182, 6-(4-(1-(2-(azetidin-1-yl)ethyl)-4-(2-isopropylpyridin-4-yl)-1H-imidazol-2-yl)piperidin-1-yl)-5-vinylpyrimidin-4-amine]
12 | 74 | C=Cc1c(N)ncnc1N1CCC(c2nc(-c3ccc(F)c(C(F)(F)F)c3)cn2CC2CNC2)CC1 [Compound 183, 6-(4-(1-(azetidin-3-ylmethyl)-4-(4-fluoro-3-(trifluoromethyl)phenyl)-1H-imidazol-2-yl)piperidin-1-yl)-5-vinylpyrimidin-4-amine]
0.26 | 2.3 | COc1c(N)ncnc1N1CCC(c2nc(-c3ccc(F)c(C)c3)cn2CC2CNC2)CC1 [Compound 184, 6-(4-(1-(azetidin-3-ylmethyl)-4-(4-fluoro-3-methylphenyl)-1H-imidazol-2-yl)piperidin-1-yl)-5-methoxypyrimidin-4-amine]
2.2 | 6.6 | CCOc1c(N)ncnc1N1CCC(c2nc(-c3ccc(F)c(C)c3)cn2CC2CNC2)CC1 [Compound 185, 6-(4-(1-(azetidin-3-ylmethyl)-4-(4-fluoro-3-methylphenyl)-1H-imidazol-2-yl)piperidin-1-yl)-5-ethoxypyrimidin-4-amine]
2 | 7.1 | Cc1cc(-c2cn(CC3CNC3)c(C3CCN(c4ncnc(N)c4OCC(F)(F)F)CC3)n2)ccc1F [Compound 186, 6-(4-(1-(azetidin-3-ylmethyl)-4-(4-fluoro-3-methylphenyl)-1H-imidazol-2-yl)piperidin-1-yl)-5-(2,2,2-trifluoroethoxy)pyrimidin-4-amine]
3.4 | 6.4 | Cc1cc(-c2cn(CC3CNC3)c(C3CCN(c4ncnc(N)c4OC(C)C)CC3)n2)ccc1F [Compound 187, 6-(4-(1-(azetidin-3-ylmethyl)-4-(4-fluoro-3-methylphenyl)-1H-imidazol-2-yl)piperidin-1-yl)-5-isopropoxypyrimidin-4-amine]
2.1 | 2.3 | CCc1c(N)ncnc1N1CCC(c2nc(-c3ccc(F)c(C)c3)cn2CC2CNC2)CC1 [Compound 188, 6-(4-(1-(azetidin-3-ylmethyl)-4-(4-fluoro-3-methylphenyl)-1H-imidazol-2-yl)piperidin-1-yl)-5-ethylpyrimidin-4-amine]
1.1 | 4.5 | Cc1cc(-c2cn(CC3CNC3)c(C3CCN(c4ncnc(N)c4C(C)C)CC3)n2)ccc1F [Compound 189, 6-(4-(1-(azetidin-3-ylmethyl)-4-(4-fluoro-3-methylphenyl)-1H-imidazol-2-yl)piperidin-1-yl)-5-isopropylpyrimidin-4-amine]
7.4 | 15 | Cc1cc(-c2cn(CC3CNC3)c(C3CCN(c4ncnc(N)c4C#N)CC3)n2)ccc1F [Compound 191, 4-amino-6-(4-(1-(azetidin-3-ylmethyl)-4-(4-fluoro-3-methylphenyl)-1H-imidazol-2-yl)piperidin-1-yl)pyrimidine-5-carbonitrile]
2700 | 7200 | CNc1ncnc(N2CCC(c3nc(-c4ccnc(C(F)(F)F)c4)cn3CCN3CCC3)CC2)c1Cl [Compound 192, 6-(4-(1-(2-(azetidin-1-yl)ethyl)-4-(2-(trifluoromethyl)pyridin-4-yl)-1H-imidazol-2-yl)piperidin-1-yl)-5-chloro-N-methylpyrimidin-4-amine]
1300 | 5700 | CNc1ncnc(N2CCC(c3nc(-c4ccc(F)c(C)c4)cn3CC3CNC3)CC2)c1Cl [Compound 193, (6-{4-[1-Azetidin-3-ylmethyl-4-(4-fluoro-3-methyl-phenyl)-1H-imidazol-2-yl]-piperidin-1-yl}-5-chloro-pyrimidin-4-yl)-methyl-amine]
3.4 | 16 | Cc1cc(-c2cn(CC3CNC3)c(C3CCC(c4ncnc(N)c4C(C)C)CC3)n2)ccc1F (centres unmarked) [Compound 194, 6-(4-(1-(azetidin-3-ylmethyl)-4-(4-fluoro-3-methylphenyl)-1H-imidazol-2-yl)cyclohexyl)-5-isopropylpyrimidin-4-amine]
16 | > 1000 | CCc1c(N)ncnc1N1CCC(c2nc(-c3ccc(F)cc3)cn2CCN2CCOCC2)CC1 [Compound 195, 5-Ethyl-6-{4-[4-(4-fluoro-phenyl)-1-(2-morpholin-4-yl-ethyl)-1H-imidazol-2-yl]-piperidin-1-yl}-pyrimidin-4-ylamine]
5.5 | 370 | CCc1c(N)ncnc1N1CCC(c2nc(-c3ccc(F)c(F)c3)cn2CCN2CCOCC2)CC1 [Compound 196, 6-{4-[4-(3,4-Difluoro-phenyl)-1-(2-morpholin-4-yl-ethyl)-1H-imidazol-2-yl]-piperidin-1-yl}-5-ethyl-pyrimidin-4-ylamine]
6.3 | 130 | CCc1c(N)ncnc1N1CCC(c2nc(-c3ccc(F)cc3)cn2CCN2CC3(COC3)C2)CC1 [Compound 197, 5-Ethyl-6-(4-{4-(4-fluoro-phenyl)-1-[2-(2-oxa-6-aza-spiro[3.3]hept-6-yl)-ethyl]-1H-imidazol-2-yl}-piperidin-1-yl)-pyrimidin-4-ylamine]
11 | 255 | CCc1c(N)ncnc1N1CCC(c2nc(-c3ccc(F)c(F)c3)cn2CCN2CC3(COC3)C2)CC1 [Compound 198, 6-(4-{4-(3,4-Difluoro-phenyl)-1-[2-(2-oxa-6-aza-spiro[3.3]hept-6-yl)-ethyl]-1H-imidazol-2-yl}-piperidin-1-yl)-5-ethyl-pyrimidin-4-ylamine]
